Target: T1, hTLR9 (Homo sapiens, UniProt Q9NR96)
T1 sequence (Q9NR96 26-1032): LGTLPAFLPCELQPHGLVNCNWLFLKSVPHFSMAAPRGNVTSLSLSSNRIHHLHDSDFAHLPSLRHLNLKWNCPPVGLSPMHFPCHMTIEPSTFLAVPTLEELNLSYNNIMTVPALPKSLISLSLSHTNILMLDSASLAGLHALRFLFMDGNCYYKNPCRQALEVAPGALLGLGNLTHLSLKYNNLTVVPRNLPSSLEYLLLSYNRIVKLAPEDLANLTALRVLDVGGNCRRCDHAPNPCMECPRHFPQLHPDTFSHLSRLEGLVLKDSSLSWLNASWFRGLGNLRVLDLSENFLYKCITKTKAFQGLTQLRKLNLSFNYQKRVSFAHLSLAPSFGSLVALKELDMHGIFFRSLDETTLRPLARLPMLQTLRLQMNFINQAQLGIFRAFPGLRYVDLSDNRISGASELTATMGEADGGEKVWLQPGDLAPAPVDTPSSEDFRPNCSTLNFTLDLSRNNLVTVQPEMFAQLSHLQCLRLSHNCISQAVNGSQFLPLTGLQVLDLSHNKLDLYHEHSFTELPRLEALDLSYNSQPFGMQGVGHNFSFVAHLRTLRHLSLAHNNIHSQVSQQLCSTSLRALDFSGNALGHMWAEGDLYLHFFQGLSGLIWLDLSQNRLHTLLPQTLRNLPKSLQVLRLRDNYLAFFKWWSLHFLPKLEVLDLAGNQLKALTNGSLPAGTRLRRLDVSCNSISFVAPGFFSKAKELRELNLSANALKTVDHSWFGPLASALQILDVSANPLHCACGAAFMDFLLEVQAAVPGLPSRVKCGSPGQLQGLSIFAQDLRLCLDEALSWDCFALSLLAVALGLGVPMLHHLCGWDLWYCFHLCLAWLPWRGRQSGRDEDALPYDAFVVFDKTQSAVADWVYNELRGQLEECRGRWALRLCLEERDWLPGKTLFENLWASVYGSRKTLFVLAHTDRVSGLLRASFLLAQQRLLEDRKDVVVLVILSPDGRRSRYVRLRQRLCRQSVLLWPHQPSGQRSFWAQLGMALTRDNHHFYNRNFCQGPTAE
Experiment: HEK293-Blue-hTLR-9 cells assay (SEAP reporter, ODN2006 stimulation)
Type: cell-based
Parameters: host or cells: HEK293 (HEK-Blue hTLR9)
Settings: HEK293-Blue-hTLR9 cells, ODN2006, 20 hrs; read-out: HEK/hTLR9 IC50
In short: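 Antagonism read as lowered SEAP reporter absorbance (620–655 nm, QUANTI-Blue, 2 h, 37 °C) in supernatants. Before that, ODN2006-stimulated HEK293-Blue cells stably expressing human TLR9 were exposed to compound dilutions at 1% final DMSO for 20 h at 37 °C.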

| SMILES | IC50 [nM] |
| --- | --- |
| C[C@@H]1CN(c2ccc(C#N)c3ncccc23)C[C@H](CN2CCN(c3cccc(N4CCNCC4)n3)CC2)O1 [Example 10, 5-[(2R,6S)-2-methyl-6-[[4-(6-piperazin-1-yl-2-pyridyl)piperazin-1-yl]methyl]morpholin-4-yl]quinoline-8-carbonitrile] | 105 |
| C[C@@H]1CN(c2ccc(C#N)c3ncccc23)C[C@H](CN2CCC(C#N)(c3ccc(N4CCNCC4)cc3)CC2)O1 [Example 11, 5-[(2S,6R)-2-[[4-cyano-4-(4-piperazin-1-ylphenyl)-1-piperidyl]methyl]-6-methyl-morpholin-4-yl]quinoline-8-carbonitrile] | 92 |
| C[C@@H]1CN(c2ccc(C#N)c3ncccc23)C[C@H](CN2CCN(c3cnc(N4CCNCC4)nc3)CC2)O1 [Example 12, 5-[(2R,6S)-2-methyl-6-[[4-(2-piperazin-1-ylpyrimidin-5-yl)piperazin-1-yl]methyl]morpholin-4-yl]quinoline-8-carbonitrile] | 32 |
| C[C@@H]1CN(c2ccc(C#N)c3ncccc23)C[C@H](CN2CCN(c3ccc(N4CCNCC4)nc3)CC2)O1 [Example 13, 5-[(2R,6S)-2-methyl-6-[[4-(6-piperazin-1-yl-3-pyridyl)piperazin-1-yl]methyl]morpholin-4-yl]quinoline-8-carbonitrile] | 142 |
| C[C@@H]1CN(c2ccc(C#N)c3ncccc23)C[C@H](CN2CCN(c3ncc(N4CCNCC4)cn3)CC2)O1 [Example 17, 5-[(2R,6S)-2-methyl-6-[[4-(5-piperazin-1-ylpyrimidin-2-yl)piperazin-1-yl]methyl]morpholin-4-yl]quinoline-8-carbonitrile] | 186 |
| C[C@@H]1CN(c2ccc(C#N)c3ncccc23)C[C@H](CN2CCN(c3cc(N4CCNCC4)ncn3)CC2)O1 [Example 18, 5-[(2R,6S)-2-methyl-6-[[4-(6-piperazin-1-ylpyrimidin-4-yl)piperazin-1-yl]methyl]morpholin-4-yl]quinoline-8-carbonitrile] | 52 |
| C[C@@H]1CN(c2ccc(C#N)c3ncccc23)C[C@H](CN2CCN(c3ccc([C@@H]4CNCCO4)cc3)CC2)O1 [Example 19, 5-[(2R,6S)-2-methyl-6-[[4-[4-[(2R)-morpholin-2-yl]phenyl]piperazin-1-yl]methyl]morpholin-4-yl]quinoline-8-carbonitrile] | 91 |
| C[C@@H]1CN(c2ccc(C#N)c3ncccc23)C[C@H](CN2CCN(c3ccc([C@H]4CNCCO4)cc3)CC2)O1 [Example 20, 5-[(2R,6S)-2-methyl-6-[[4-[4-[(2S)-morpholin-2-yl]phenyl]piperazin-1-yl]methyl]morpholin-4-yl]quinoline-8-carbonitrile] | 96 |
| C[C@@H]1CN(c2ccc(C#N)c3ncccc23)C[C@H](CN2CCN(c3cc(N4CCN(C)CC4)ncn3)CC2)O1 [Example 21, 5-[(2R,6S)-2-methyl-6-[[4-[6-(4-methylpiperazin-1-yl)pyrimidin-4-yl]piperazin-1-yl]methyl]morpholin-4-yl]quinoline-8-carbonitrile] | 219 |
| C[C@@H]1CN(c2ccc(C#N)c3ncccc23)C[C@H](CN2CCN(c3ccnc(N4CCN(C(=O)[C@@H]5CCCN5)CC4)n3)CC2)O1 [Example 31, 5-[(2R,6S)-2-methyl-6-[[4-[2-[4-[(2S)-pyrrolidine-2-carbonyl]piperazin-1-yl]pyrimidin-4-yl]piperazin-1-yl]methyl]morpholin-4-yl]quinoline-8-carbonitrile] | 46 |
| C[C@@H]1CN(c2ccc(C#N)c3ncccc23)C[C@H](CN2CCN(c3cccc(N4CCN(C)CC4)n3)CC2)O1 [Example 33, 5-[(2R,6S)-2-methyl-6-[[4-[6-(4-methylpiperazin-1-yl)-2-pyridyl]piperazin-1-yl]methyl]morpholin-4-yl]quinoline-8-carbonitrile] | 116 |

Now from value to compound:

| IC50 [nM] | SMILES |
| --- | --- |
| 32 | C[C@@H]1CN(c2ccc(C#N)c3ncccc23)C[C@H](CN2CCN(c3cc(N4CCNCC4)ccn3)CC2)O1 [Example 9, 5-[(2R,6S)-2-methyl-6-[[4-(4-piperazin-1-yl-2-pyridyl)piperazin-1-yl]methyl]morpholin-4-yl]quinoline-8-carbonitrile] |
| 32 | C[C@@H]1CN(c2ccc(C#N)c3ncccc23)C[C@H](CN2CCN(c3nccc(N4CCNCC4)n3)CC2)O1 [Example 14, 5-[(2R,6S)-2-methyl-6-[[4-(4-piperazin-1-ylpyrimidin-2-yl)piperazin-1-yl]methyl]morpholin-4-yl]quinoline-8-carbonitrile] |
| 36 | C[C@@H]1CN(c2ccc(C#N)c3ncccc23)C[C@H](CN2CCN(c3ccnc(N4CCNCC4)n3)CC2)O1 [Example 15, 5-[(2R,6S)-2-methyl-6-[[4-(2-piperazin-1-ylpyrimidin-4-yl)piperazin-1-yl]methyl]morpholin-4-yl]quinoline-8-carbonitrile] |
| 45 | C[C@@H]1CN(c2ccc(C#N)c3ncccc23)C[C@H](CN2CCN(c3ccnc(N4CCN(C)CC4)n3)CC2)O1 [Example 22, 5-((2R,6S)-2-methyl-6-((4-(2-(4-methylpiperazin-1-yl)pyrimidin-4-yl)piperazin-1-yl)methyl)morpholino)quinoline-8-carbonitrile] |
| 232 | C[C@@H]1CN(c2ccc(C#N)c3ncccc23)C[C@H](CN2CCN(c3ccnc(N4CC(N)C4)n3)CC2)O1 [Example 23, 5-[(2S,6R)-2-[[4-[2-(3-aminoazetidin-1-yl)pyrimidin-4-yl]piperazin-1-yl]methyl]-6-methyl-morpholin-4-yl]quinoline-8-carbonitrile] |
| 32 | C[C@@H]1CN(c2ccc(C#N)c3ncccc23)C[C@H](CN2CCN(c3ccnc(N[C@H]4CNC[C@H]4F)n3)CC2)O1 [Example 24, 5-[(2S,6R)-2-[[4-[2-[[(3S,4R)-4-fluoropyrrolidin-3-yl]amino]pyrimidin-4-yl]piperazin-1-yl]methyl]-6-methyl-morpholin-4-yl]quinoline-8-carbonitrile] |
| 33 | C[C@@H]1CN(c2ccc(C#N)c3ncccc23)C[C@H](CN2CCN(c3ccnc(N4CCNCC(O)C4)n3)CC2)O1 (stereo partly drawn) [Example 25, 5-[(2S,6R)-2-[[4-[2-(6-hydroxy-1,4-diazepan-1-yl)pyrimidin-4-yl]piperazin-1-yl]methyl]-6-methyl-morpholin-4-yl]quinoline-8-carbonitrile] |
| 32 | CO[C@H]1CN(c2nccc(N3CCN(C[C@H]4CN(c5ccc(C#N)c6ncccc56)C[C@@H](C)O4)CC3)n2)C[C@@H]1N [Example 26, 5-[(2S,6R)-2-[[4-[2-trans-(3-amino-4-methoxy-pyrrolidin-1-yl)pyrimidin-4-yl]piperazin-1-yl]methyl]-6-methyl-morpholin-4-yl]quinoline-8-carbonitrile] |
| 43 | C[C@@H]1CN(c2ccc(C#N)c3ncccc23)C[C@H](CN2CCN(c3ccnc(N4CCC(N)CC4)n3)CC2)O1 [Example 27, 5-[(2S,6R)-2-[[4-[2-(4-amino-1-piperidyl)pyrimidin-4-yl]piperazin-1-yl]methyl]-6-methyl-morpholin-4-yl]quinoline-8-carbonitrile] |
| 65 | C[C@@H]1CN(c2ccc(C#N)c3ncccc23)C[C@H](CN2CCN(c3ccnc(NC4CNC4)n3)CC2)O1 [Example 28, 5-[(2S,6R)-2-[[4-[2-(azetidin-3-ylamino)pyrimidin-4-yl]piperazin-1-yl]methyl]-6-methyl-morpholin-4-yl]quinoline-8-carbonitrile] |
| 51 | C[C@@H]1CN(c2ccc(C#N)c3ncccc23)C[C@H](CN2CCN(c3ccnc(N4CCN[C@@H](CO)C4)n3)CC2)O1 [Example 29, 5-[(2S,6R)-2-[[4-[2-[(3R)-3-(hydroxymethyl)piperazin-1-yl]pyrimidin-4-yl]piperazin-1-yl]methyl]-6-methyl-morpholin-4-yl]quinoline-8-carbonitrile] |
| 250 | C[C@@H]1CN(c2ccc(C#N)c3ncccc23)C[C@H](CN2CCN(c3ccnc(OCCN(C)C)n3)CC2)O1 [Example 30, 5-[(2S,6R)-2-[[4-[2-[2-(dimethylamino)ethoxy]pyrimidin-4-yl]piperazin-1-yl]methyl]-6-methyl-morpholin-4-yl]quinoline-8-carbonitrile] |
| 73 | C[C@@H]1CN(c2ccc(C#N)c3ncccc23)C[C@H](CN2CCN(c3ccnc(N4CCN(C(=O)CN(C)C)CC4)n3)CC2)O1 [Example 32, 5-[(2S,6R)-2-[[4-[2-[4-[2-(dimethylamino)acetyl]piperazin-1-yl]pyrimidin-4-yl]piperazin-1-yl]methyl]-6-methyl-morpholin-4-yl]quinoline-8-carbonitrile] |

Source: US20210395239A1 (Hoffmann-La Roche Inc., priority 2018, published 2021)
